Legend:
[1] = test system: PBMC-derived CD8+ T cells from T1D patients; test: Binding of HLA-A*02:01 barcoded pMHC tetramer library to PBMC-derived CD8+ T cells of T1D patients and healthy donors; parameters: species or system human; settings: for Normalized T1D prevalence: average number of times the epitope in the pMHC tetramer library was bound by cognate TCR in the T1D cohort, 8 T1D patients, 1 nM per tetramer; for % Presence in T1D samples: percentage of T1D samples in which the epitope response was observed
From the text: This example describes assessment of peptide binding to peripheral T cells from 8 short clinical duration T1D patients and 21 healthy donors who are HLA-matched without a history of diabetes, thereby to identify T1D-associated, HLA-A*02:01-restricted T cell epitopes.
Briefly, in the high-throughput screen described in Example 1, a library of HLA-A*02:01 oligo-barcoded pMHC tetramers was created as described in Francis et al., (2022) Sci Immunol 21:eabk3070. This tetramer library was composed of individual pMHCs representing hundreds of different epitopes identified in Example 1. CD8+ T cells were derived from frozen peripheral blood mononuclear cells (PBMCs) of human donors. CD8+ T cells were enriched via magnetic-activated cell separation from thawed PBMCs via commercially available negative enrichment kits (Miltenyi). Resulting enriched CD8+ T cells were counted and a standard input of 1 million CD8+ T cells per subject were then stained with tetramer libraries at final concentration of 1 nM per pMHC tetramer, in the presence of 2 mg/mL salmon sperm DNA in PBS with 0.5% BSA solution for 20 min. Stained cells were barcoded by commercially available anti-TCR antibody-derived tags (ADT, clone IP26, Biolegend). Tetramer bound cells were then labeled with phycoerythrin (PE) conjugated anti-DKDDDDK-Flag antibody (Biolegend) followed by dead cell discrimination using 7-amino-actinomycin D (7-AAD). Live, tetramer positive cells were sorted using a Sony MA900 Sorter. Following sorting, tetramer positive cells were single-cell sequenced using commercially available systems and protocols from 10× Genomics. Post-sequencing cells were demultiplexed and passed through standard quality control workflows (removal of duplicates, damaged cells, empty droplets, etc.) as described in Francis et al., (2022) Sci Immunol 21:eabk3070. Demultiplexed, tetramer positive cells were scored for pMHC-TCR interactions as described in Francis et al., (2022) Sci Immunol 21:eabk3070. Non-control pMHC-TCR putative binders passing quality control filters and scoring were used for analysis. The resulting pMHC-TCR matrix reactivity map was analyzed by abundance for “normalized T1D prevalence”, “relative enrichment”, and “% presence in T1D samples.” Normalized prevalence was defined as the average number of times an epitope in the pMHC tetramer library was bound by cognate TCR in the T1D cohort. […] Finally, for an epitope to be considered of value, it must pass prevalence and enrichment thresholds and have cognate T cells present in at least 75 percent of T1D subjects.

recombinant TCRs (rTCRs) = test: Activation (CD69+) of J76-CD8-NFAT-GFP cells expressing recombinant TCRs by peptide-loaded HLA-A*02:01+ T2 cells; type: cell-based, human; settings: 50 μM peptide, T2 cells 1:1, 16 hours
From the text: This example describes functional validation of the T cell epitopes described in Examples 2 and 3, and their cognate TCRs, by assessing the ability of certain T cell epitopes, when presented by APCs that express HLA-A*02:01, to activate an immortalized T cell line expressing recombinant TCRs sequenced from the T cells of T1D patients and healthy donors. […] The relevance of certain identified T1D associated epitopes was evidenced by binding and activation of cognate TCRs in primary T cells or recombinant T cell lines.
(§1) Briefly, native paired alpha and beta TCR sequences identified from human tissues, such as PBMC or islet-derived CD8 T cells, were cloned into the pLVX-EFla lentiviral backbone (Takara) as a bicistronic TCRB-T2A-TCRa vector. TCRa/B/Jurkat J76 cells, which were engineered to express CD8 and a nuclear factor of activated T cells (NFAT)-green fluorescent protein (GFP) reporter (referred to as J76-CD8-NFAT-GFP), were transduced with lentiviral vectors produced from HEK 293T cells. To assess functional activity of the recombinant TCRs (rTCRs), J76-CD8-NFAT-GFP expressing recombinant TCRs were incubated at a 1:1 ratio with the HLA-A*02:01^+ T2(174×CEM.T2) (ATCC CRL-1991) lymphoblastic cell line, with a final concentration of 50 μM of cognate peptide (Vivitide, >95% pure) or 0.5% dimethylsulfoxide (DMSO, vehicle). Cell mixtures were incubated at 37° C., 5% CO2 for 16 hours. Activation of the T cells was assessed by flow cytometry using anti-CD3-PE-Cy7 (Clone UCHT1) and anti-CD69-APC (Clone FN50) antibodies, and analyzed using the Satorius iQue Screener Plus and FlowJo v10. Activation of rTCR-expressing cell lines was determined by comparing the mean percentage of CD69^+ cells out of CD3^+ cells, in cell mixtures with cognate peptide-loaded T2 cells, with the mean percentage in cell mixtures with no peptide (DMSO control).

[2] = test system: pancreatic islet infiltrating T cells; test: Binding of pMHC library to polyclonally expanded islet-derived T cell lines from T1D organ donors; parameters: species or system human; settings: single high abundance TCR
From the text: This example describes assessment of peptides that bind to T cell lines derived from living pancreatic islets of recently deceased pancreatic organ donors with T1D, thereby to identify T1D-associated, HLA-A*02:01-restricted T cell epitopes directly associated with islet infiltrating T cells. This assay, using specialized post-mortem processing of difficult-to-obtain pancreas biopsy, further confirmed the association of selected epitopes with T1D, given that disease-associated T cell epitopes generally result in infiltration of T cells that can cause inflammation and subsequent beta cell cytotoxicity in the pancreas.
Briefly, pancreatic slices were sourced from individuals with suspected or confirmed Type I diabetes diagnosis at the time of death by the Network of Pancreatic Organ Donors. Within in 72 hours of death, pancreatic islets were macrodissected from the slices under sterile conditions. These islets were cultured with a cocktail of cytokines and immune stimulating factors that allow T cell expansion independent of cognate TCR-pMHC interaction, using the polyclonal T cell expansion method described in Babon et al., (2016) Nat Med 22:1482-1487. The resulting T cell lines were then screened against pMHC libraries described in Example 2.
This epitope bound to a single, high abundance TCR derived from an individual that was diagnosed with Type I diabetes 4 months prior to death. […]

islet-derived rTCR = test: Peptide dose-response of islet-derived rTCR expressed in Jurkat T cells; type: cell-based, human; settings: Jurkat T cells expressing islet-derived rTCR, pulsed with 0.001 to 100 μM peptide; approximate affinity of pMHC-rTCR interaction; read-out: EC50 (half maximal effective concentration)
Description: FIG. 1 depicts a dose-response for the islet-derived rTCR described in Table 5 when pulsed with a range of cognate peptide from 0.001 to 100 μM.
This epitope bound to a single, high abundance TCR derived from an individual that was diagnosed with Type I diabetes 4 months prior to death. […] The EC50 value represents an approximate affinity for the pMHC-rTCR[…] interaction.
as §1, with “To assess functional activity of the recombinant TCRs (rTCRs), J76-CD8-NFAT-GFP expressing recombinant TCRs were incubated at a 1:1 ratio with the HLA-A*02:01^+ T2(174×CEM.T2) (ATCC CRL-1991) lymphoblastic cell line, with a final concentration of 50 μM of cognate peptide (Vivitide, >95% pure) or 0.5% dimethylsulfoxide (DMSO, vehicle). Cell mixtures were incubated at 37° C., 5% CO2 for 16 hours.” left out

| Sequence | Normalized T1D prevalence [1] | % Presence in T1D samples [1] | also measured |
| --- | --- | --- | --- |
| ALAWAVWLA | 1.94 | 87.5% |  |
| ALMGQAAGV | 1.50 | 87.5% |  |
| FLPYDHARI | 2.94 | 87.5% |  |
| FLSWALNSC | 2.50 | 100% |  |
| FSESILTYV | 2.88 | 87.5% |  |
| FVAGLFVML | 1.88 | 87.5% |  |
| GQWAGGAYA | 1.81 | 87.5% |  |
| KLNWDLHTA | 3.63 | 87.5% |  |
| KLSPSQHLA | 1.06 | 87.5% |  |
| KMAKDWKTV | 2.38 | 100% | Mean % CD69+ T cells with cognate peptide (recombinant TCRs (rTCRs); TCR_12, source PBMC): 18.65% |
| LLPPRVLPA |  |  | Mean % CD69+ T cells with cognate peptide (recombinant TCRs (rTCRs); TCR_15, source PBMC): 32.25% |
| LMSGILGLA | 2.44 | 87.5% |  |
| LQFRGSMLA | 2.00 | 100% |  |
| MVWESGCVV | 16.313 | 100% |  |
| NLLYPVPLV | 2.81 | 87.5% | Mean % CD69+ T cells with cognate peptide (recombinant TCRs (rTCRs); TCR_03, source PBMC): 49.75%; Mean % CD69+ T cells with cognate peptide (recombinant TCRs (rTCRs); TCR_08, source PBMC): 27.25%; Mean % CD69+ T cells with cognate peptide (recombinant TCRs (rTCRs); TCR_11, source PBMC): 21.65% |
| NLYTFVLKV | 2.56 | 87.5% |  |
| QALDVGWLV | 1.19 | 87.5% |  |
| QLLFSLPKL |  |  | Mean % CD69+ T cells with cognate peptide (recombinant TCRs (rTCRs); TCR_16, source PBMC): 61.55% |
| SVALWNNAV | 1.13 | 87.5% |  |
| TLDIFLEIV |  |  | Mean % CD69+ T cells with cognate peptide (recombinant TCRs (rTCRs); TCR_17, source PBMC): 36.7% |
| TLMAVIGGL | 3.63 | 100% |  |
| TLSKPSPMPV | 1.06 | 87.5% |  |
| TLSWALYEL | 2.50 | 100% | Mean % CD69+ T cells with cognate peptide (recombinant TCRs (rTCRs); TCR_01, source PBMC): 59.8%; Mean % CD69+ T cells with cognate peptide (recombinant TCRs (rTCRs); TCR_02, source PBMC): 58%; Mean % CD69+ T cells with cognate peptide (recombinant TCRs (rTCRs); TCR_04, source PBMC): 48%; Mean % CD69+ T cells with cognate peptide (recombinant TCRs (rTCRs); TCR_06, source PBMC): 39%; Mean % CD69+ T cells with cognate peptide (recombinant TCRs (rTCRs); TCR_07, source PBMC): 33.55%; Mean % CD69+ T cells with cognate peptide (recombinant TCRs (rTCRs); TCR_14, source PBMC): 15.45% |
| TLVTLCHYA | 1.94 | 87.5% |  |
| VIGDWLNLI | 2.188 | 75% | Binding to islet-derived T cells from T1D patients [2]: identified as binding; Mean % CD69+ T cells with cognate peptide (recombinant TCRs (rTCRs); TCR_09, source PBMC): 26.15%; Mean % CD69+ T cells with cognate peptide (recombinant TCRs (rTCRs); TCR_18, source PBMC): 26.15%; Mean % CD69+ T cells with cognate peptide (recombinant TCRs (rTCRs); TCR_19, source islet): 28.8%; EC50 (islet-derived rTCR): 2.2 µM |
| VLQASSISA | 3.19 | 100% |  |
| VLVNKVLLV | 1.69 | 87.5% | Mean % CD69+ T cells with cognate peptide (recombinant TCRs (rTCRs); TCR_10, source PBMC): 29.45% |
| YAPWELLSV | 2.44 | 87.5% | Mean % CD69+ T cells with cognate peptide (recombinant TCRs (rTCRs); TCR_05, source PBMC): 38.4%; Mean % CD69+ T cells with cognate peptide (recombinant TCRs (rTCRs); TCR_13, source PBMC): 17.55% |

From patent publication US20260041747A1, “T CELL EPITOPES ASSOCIATED WITH TYPE 1 DIABETES” (Repertoire Immune Medicines, Inc., priority 2022, published 2026)
